Experimental data taken from US8133847B2, “Pyrido[2,3-B]pyrazine derivatives useful as herbicidal compounds” (Syngenta Limited, priority 2006, dated 2012).

Assays:
Test in all cases: Example B1 herbicidal action, post-emergence, 96-cell seed trays, climatic chamber
Format in all cases: in vivo
[1] = test system: Amaranthus retroflexus (AMARE); details: Application post-emergence, 1000 mg/l spray equivalent to 1000 g/ha, evaluated after 9 days
Protocol: (§1) Seeds of a variety of test species were sown in sterilised standard soil in seed trays each having 96 cells. After cultivation for 8 to 9 days cultivation (post-emergence) under controlled conditions in a climatic chamber (cultivation at 23/17° C., day/night; 13 hours light; 50-60% humidity), the plants were treated with an aqueous spray solution of 1000 mg/l of the active ingredient dissolved in 10% DMSO (dimethyl sulfoxide, CAS RN 67-68-5) as a solvent, equivalent to 1000 g/ha. The plants were grown in the climatic chamber after application at (24/19° C., day/night; 13 hours light; 50-60% humidity) and watered twice daily. After 9 days until the test was evaluated (100=total damage to plant, 0=no damage to plant)

Solanum nigrum (SOLNI) = details: Application post-emergence, 1000 mg/l spray equivalent to 1000 g/ha, evaluated after 9 days (100=total damage to plant, 0=no damage to plant)
Protocol: as §1

Stellaria media (STEME) = details: Application post-emergence, 1000 mg/l spray equivalent to 1000 g/ha, evaluated after 9 days (100=total damage to plant, 0=no damage to plant)
Protocol: as §1

[2] = test system: Nasturtium officinale (NAAOF); set-up: scale not given here; details: Application post-emergence, 1000 mg/l spray equivalent to 1000 g/ha, evaluated after 9 days (100=total damage to plant, 0=no damage to plant)
Protocol: as §1

Structure (SMILES)	damage to plant, Amaranthus retroflexus (AMARE) [1]	damage to plant, Solanum nigrum (SOLNI) (Solanum nigrum (SOLNI))	damage to plant, Stellaria media (STEME) (Stellaria media (STEME))	damage to plant, Nasturtium officinale (NAAOF) [2]
C=CCn1c(=O)c(-c2c(F)ccc(F)c2Cl)c(OC(C)=O)c2nccnc21 [Compound C14]	7	4	8	8
CC(C)C(=O)Oc1c(-c2cc(C(F)(F)F)ccc2Cl)c(=O)n(C)c2nccnc12 [Compound C118]	6	6	8	7
CC(C)C(=O)Oc1c(-c2c(F)ccc(F)c2F)c(=O)n(C)c2nccnc12 [Compound C58]	6	0	8	7
CC(=O)Oc1c(-c2c(Cl)cccc2Cl)c(=O)n(C)c2nccnc12 [Compound C33]	3	6	6	7
Cn1c(=O)c(-c2ccc(Cl)cc2Cl)c(OC(=O)C(C)(C)C)c2nccnc21 [Compound C61]	8	2	8	8
CCn1c(=O)c(-c2cccc(Cl)c2Cl)c(OC(=O)C(C)C)c2nccnc21 [Compound C45]	8	6	9	8
CCn1c(=O)c(-c2ccccc2OC(F)(F)F)c(OC(C)=O)c2nccnc21 [Compound C27]	7	6	5	7
O=c1[nH]c2nccnc2c(O)c1-c1cc(Cl)ccc1Cl [Compound A3]	8	0	3	4
CC(C)(C)C(=O)Oc1c(-c2ccccc2OC(F)(F)F)c(=O)[nH]c2nccnc12 [Compound B17]	0	2	0	0
CCn1c(=O)c(-c2ccc(Cl)c(Cl)c2)c(OC(C)=O)c2nccnc21 [Compound C72]	0	0	2	8
Cn1c(=O)c(-c2cc(C(F)(F)F)ccc2Cl)c(OC(=O)C(C)(C)C)c2nccnc21 [Compound C121]	5	7	7	6
Cc1ccc(Cl)c(-c2c(OC(=O)C(C)(C)C)c3nccnc3n(C)c2=O)c1F [Compound C116]	0	4	4	2
CC(C)C(=O)Oc1c(-c2ccc(F)cc2Cl)c(=O)n(C)c2nccnc12 [Compound C5]	7	2	8	7
O=c1[nH]c2nccnc2c(O)c1-c1ccccc1OC(F)(F)F [Compound A13]	5	0	3	0
CCn1c(=O)c(-c2c(Cl)cccc2C(F)(F)F)c(OC(=O)C(C)C)c2nccnc21 [Compound C80]	7	2	8	6
